{"source": "patent US20020193441A1", "about": "“Prostanoid therapies for the treatment of glaucoma” (priority 2001, published 2002)", "key": {"[1]": {"test_system": "patients with open-angle glaucoma or ocular hypertension", "assay": "Clinical studies of travoprost (six, nine and twelve month studies pooled): IOP in black v. non-black patients", "assay_type": "in vivo, human", "details": "for Mean IOP (overall) / IOP change from baseline: combined over visit and time of day; for Mean IOP (overall): pooled; for IOP change from baseline: three studies pooled, intent-to-treat", "protocol": "The ability of travoprost to lower IOP was evaluated in three separate clinical trials, each involving the evaluation of both a low (0.0015%) and a high (0.004%) concentration composition. The studies differed in length, one lasting six months (hereinafter “six month study”), one lasting nine months (hereinafter “nine month study”) and one lasting twelve months (hereinafter “twelve month study”). The twelve month study was a triple-masked, parallel group, primary therapy study of the safety and efficacy of travoprost 0.0015% and travoprost 0.004% compared to timolol 0.5% and latanoprost 0.005% in patients with open-angle glaucoma or ocular hypertension. The term triple-masked is synonymous with the ICH E3 definition of double-blind. Patients of any race and either sex with open-angle glaucoma (with or without dispersion or pseudoexfoliation component) or ocular hypertension were qualified to participate in the studies. Pursuant to the study protocol, one group received travoprost 0.0015% topical ocular solution and dropped one drop once-daily in each eye at 8:00 p.m. A second group received travoprost 0.004% topical ocular solution and dropped one drop, once-daily in each eye at 8:00 p.m. A third group received vehicle only (placebo) and dropped one drop, once-daily in each eye at 8:00 a.m. A fourth group received timolol 0.5% topical ocular solution and dropped one drop, twice-daily in each eye at 8:00 a.m. and 8:00 p.m. A fifth group received latanoprost 0.005% topical ocular solution and dropped one drop, once-daily in each eye at 8:00 p.m. For evaluation purposes, the primary efficacy variable was mean intraocular pressure (IOP) in patient's worse eye. Safety was based on ocular and systemic parameters including hyperemia, flare, iris color, visual acuity, slit-lamp examinations, endothelial cell density, pachymetry, blood pressure and pulse, laboratory assessments, dilated fundus examinations, automated perimetry and adverse events. Repeated measures analysis of variance was used to test differences among treatment groups and to calculate 95% confidence limits about the differences between groups. The six month study was a triple-masked, parallel group, primary therapy study of the safety and efficacy of travoprost 0.0015% and travoprost 0.004% compared to timolol 0.5% in patients with open-angle glaucoma or ocular hypertension. The term triple-masked is synonymous with the ICH E3 definition of double-blind. Patients of any race and either sex with open-angle glaucoma (with or without dispersion or pseudoexfoliation component) or ocular hypertension were qualified to participate in the studies. Pursuant to the study protocol, one group received travoprost 0.0015% topical ocular solution and dropped one drop once-daily in each eye at 8:00 p.m. A second group received travoprost 0.004% topical ocular solution and dropped one drop, once-daily in each eye at 8:00 p.m. A third group received vehicle only (placebo) and dropped one drop, once-daily in each eye at 8:00 a.m. A fourth group received timolol 0.5% topical ocular solution and dropped one drop, twice-daily in each eye at 8:00 a.m. and 8:00 p.m. For evaluation purposes, the primary efficacy variable was mean intraocular pressure (IOP) in patient's worse eye. Safety was based on ocular and systemic parameters including hyperemia, aqueous cells and flare, iris pigmentation, visual acuity, slit-lamp biomicroscopy, blood pressure and pulse, laboratory assessments, dilated fundus examinations, automated perimetry and adverse events. Repeated measures analysis of variance was used to test differences among treatment groups and to calculate 95% confidence limits about the differences between groups. The nine month study was a triple-masked, parallel group, primary therapy study of the safety and efficacy of travoprost 0.0015% and travoprost 0.004% compared to timolol 0.5% and latanoprost 0.005% in patients with open-angle glaucoma or ocular hypertension. […]"}, "[2]": {"test_system": "black and non-black patients", "assay": "Dose-response evaluations: travoprost concentration and IOP response in black and non-black patients", "assay_type": "in vivo, human", "text": "Dose-response studies were undertaken to evaluate the relationship between travoprost and IOP response in black and non-black patients. […] FIG. 1 depicts the relationship between log concentration and IOP for black patients versus non-black patients. For black patients, IOP went from approximately 28 mmHg at a concentration of 0.00009% travoprost to approximately 18.5 mmHg at 0.004% travoprost. For non-black patients, IOP went from approximately 23 mmHg at 0.00009% travoprost to approximately 18 mmHg at 0.004% travoprost. FIG. 2 depicts the relationship between log concentration and IOP change. IOP change went from approximately −1 mmHg to approximately −7.75 mmHg for black patients and from approximately −3.25 mmHg to approximately −7.25 mmHg for non-black patients. FIGS. 1 and 2 depict a comparison of IOP or IOP change to log concentration to illustrate the significance of the dose-response difference between the two groups. FIGS. 3 and 4 depict the same relationships using actual concentrations."}, "[3]": {"details": "travoprost 0.0015%, black patients"}, "[4]": {"details": "travoprost 0.0015%, non-black patients"}, "[5]": {"details": "travoprost 0.004%, black patients"}, "[6]": {"details": "travoprost 0.004%, non-black patients"}}, "data": [{"smiles": "CC(C)OC(=O)CCC/C=C\\C[C@@H]1[C@@H](/C=C/[C@@H](O)COc2cccc(C(F)(F)F)c2)[C@H](O)C[C@@H]1O", "note": "[Travoprost, travoprost]", "values": [{"measurement": "Further IOP reduction when dose increased from 0.0015% to 0.004%", "setting": "[1]; blacks", "result": "statistically significant further reduction"}, {"measurement": "Further IOP reduction when dose increased from 0.0015% to 0.004%", "setting": "[1]; caucasians (non-blacks)", "result": "no further reduction"}, {"measurement": "Subgroup difference in mean IOP between black and non-black patients (analysis of variance)", "setting": "[1]; travoprost 0.0015% analysis", "result": "No statistically significant subgroup differences"}, {"measurement": "Difference in IOP change from baseline between blacks and non-blacks", "setting": "[1]; travoprost 0.0015% dose", "result": "no significant difference"}, {"measurement": "Mean IOP (combined over visit)", "setting": "[1]; travoprost 0.0015%, black patients, 4 p.m.", "result": 17.8, "unit": "mmHg"}, {"measurement": "Mean IOP (combined over visit)", "setting": "[1]; travoprost 0.0015%, black patients, 8 a.m.", "result": 19.6, "unit": "mmHg"}, {"measurement": "Mean IOP (combined over visit)", "setting": "[1]; travoprost 0.0015%, black patients, 10 a.m.", "result": 18.4, "unit": "mmHg"}, {"measurement": "Mean IOP (overall)", "setting": "[1]; [3]", "result": 18.6, "unit": "mmHg"}, {"measurement": "IOP change from baseline", "setting": "[1]; [3]", "result": "−7.1", "unit": "mmHg"}, {"measurement": "Mean IOP (combined over visit)", "setting": "[1]; travoprost 0.0015%, non-black patients, 4 p.m.", "result": 18.2, "unit": "mmHg"}, {"measurement": "Mean IOP (combined over visit)", "setting": "[1]; travoprost 0.0015%, non-black patients, 8 a.m.", "result": 19.4, "unit": "mmHg"}, {"measurement": "Mean IOP (combined over visit)", "setting": "[1]; travoprost 0.0015%, non-black patients, 10 a.m.", "result": 18.5, "unit": "mmHg"}, {"measurement": "Mean IOP (overall)", "setting": "[1]; [4]", "result": 18.7, "unit": "mmHg"}, {"measurement": "IOP change from baseline", "setting": "[1]; [4]", "result": "−7.1", "unit": "mmHg"}, {"measurement": "Subgroup difference in mean IOP between black and non-black patients (analysis of variance)", "setting": "[1]; travoprost 0.004% analysis", "result": "significant subgroup difference"}, {"measurement": "Subgroup difference in mean IOP, black lower than non-black", "setting": "[1]; travoprost 0.004%, 4 PM", "result": 1.1, "unit": "mmHg"}, {"measurement": "Subgroup difference in mean IOP, black lower than non-black", "setting": "[1]; travoprost 0.004%, 8 AM", "result": 0.8, "unit": "mmHg"}, {"measurement": "Subgroup difference in mean IOP, black lower than non-black", "setting": "[1]; travoprost 0.004%, 10 AM", "result": 1.5, "unit": "mmHg"}, {"measurement": "Mean IOP (combined over visit)", "setting": "[1]; travoprost 0.004%, black patients, 4 p.m.", "result": 16.8, "unit": "mmHg"}, {"measurement": "Mean IOP (combined over visit)", "setting": "[1]; travoprost 0.004%, black patients, 8 a.m.", "result": 18.6, "unit": "mmHg"}, {"measurement": "Mean IOP (combined over visit)", "setting": "[1]; travoprost 0.004%, black patients, 10 a.m.", "result": 16.8, "unit": "mmHg"}, {"measurement": "Mean IOP (overall)", "setting": "[1]; [5]", "result": 17.4, "unit": "mmHg"}, {"measurement": "IOP change from baseline", "setting": "[1]; [5]", "result": "−8.1", "unit": "mmHg"}, {"measurement": "Difference in mean IOP, black lower than non-black", "setting": "[1]; travoprost 0.004%, combined (8 a.m., 10 a.m., and 4 p.m.) results", "result": "up to 1.5 mmHg"}, {"measurement": "Mean IOP (combined over visit)", "setting": "[1]; travoprost 0.004%, non-black patients, 4 p.m.", "result": 18.0, "unit": "mmHg"}, {"measurement": "Mean IOP (combined over visit)", "setting": "[1]; travoprost 0.004%, non-black patients, 8 a.m.", "result": 19.3, "unit": "mmHg"}, {"measurement": "Mean IOP (combined over visit)", "setting": "[1]; travoprost 0.004%, non-black patients, 10 a.m.", "result": 18.3, "unit": "mmHg"}, {"measurement": "Mean IOP (overall)", "setting": "[1]; [6]", "result": 18.5, "unit": "mmHg"}, {"measurement": "IOP change from baseline", "setting": "[1]; [6]", "result": "−7.5", "unit": "mmHg"}, {"measurement": "Difference in mean IOP, black lower than non-black", "setting": "[1]; travoprost 0.004%, overall result", "result": 1.1, "unit": "mmHg"}, {"measurement": "IOP (FIG. 1)", "setting": "[2]; 0.00009% travoprost, black patients", "result": "approximately 28 mmHg"}, {"measurement": "IOP (FIG. 1)", "setting": "[2]; 0.00009% travoprost, non-black patients", "result": "approximately 23 mmHg"}, {"measurement": "IOP (FIG. 1)", "setting": "[2]; 0.004% travoprost, black patients", "result": "approximately 18.5 mmHg"}, {"measurement": "IOP (FIG. 1)", "setting": "[2]; 0.004% travoprost, non-black patients", "result": "approximately 18 mmHg"}, {"measurement": "Dose-response based on comparison slopes", "setting": "[2]; black patients compared with non-black patients", "result": "much more pronounced dose-response"}, {"measurement": "IOP change (FIG. 2)", "setting": "[2]; black patients, high end of concentration range ('to')", "result": "approximately −7.75 mmHg"}, {"measurement": "IOP change (FIG. 2)", "setting": "[2]; black patients, low end of concentration range ('from')", "result": "approximately −1 mmHg"}, {"measurement": "Mean IOP versus dose", "setting": "[2]; both race subgroups", "result": "reduced significantly with increasing dose"}, {"measurement": "IOP change (FIG. 2)", "setting": "[2]; non-black patients, high end of concentration range ('to')", "result": "approximately −7.25 mmHg"}, {"measurement": "IOP change (FIG. 2)", "setting": "[2]; non-black patients, low end of concentration range ('from')", "result": "approximately −3.25 mmHg"}]}]}
